Entries after “also recorded” stand apart in the source; their conditions may differ. Ends that are not written are not given here.
Legend:
MrgB3-receptor = conditions: ref Tatemoto et al., 2006; cited from earlier work
Description: The exact mechanism of basic secretagogue-mediated mast cell degranulation remains unclear. […] However, this would require the ability of peptides, despite their positive charge, to diffuse across the membrane in order to reach intracellular G-proteins, and as this has not been shown, the hypothesis seems unlikely (Tat ...

[1] = system: rat peritoneal mast cells; conditions: rat peritoneal mast cells; ref Baun et al., 2012; cited from earlier work
Description: Inspired by clinical findings, we have previously characterized the degranulating effect of various PACAP-analogues on isolated rat peritoneal mast cells. Based on the expectation that degranulation is mediated through the PAC1-receptor, we found an unpredicted order of potency (Baun et al., [2012]).

VPAC2 = conditions: cited from earlier work
Description: (§1) Pituitary adenylate cyclase-activating peptide-38 (PACAP-38) is a 38-amino acid neuropeptide located in both sensory and parasympathetic perivascular nerve fibers (Moller et al., [1993]; Mulder et al., [1994]). A C-terminal truncated 27-amino acid (PACAP-27) version is endogenously present as well but is less abundant (Miyata et al., [1990]; Arimura et al., [1991]; Ogi et al., [1993]).

VPAC1 = conditions: cited from earlier work
Description: as §1

[2] = system: MrgB3-receptor (RGD1560730); experiment: Two-electrode voltage clamp on MrgB3-receptor-expressing Xenopus laevis oocytes; type: cell-based, rat; conditions: 1–10 μM, holding potential −70 mV
Description: (§2) DNA of the coding region of Rattus Norvegicus Adcyap1r1 variant 5 (NM_001270582.1) encoding the null-splice variant (short N-terminal and neither exon 14 or 15) of the PAC1-receptor (Vector: EX-Rn10199-M03) was ordered from GeneCopoeia. DNA encoding the RGD1560730 gene (XM_006229262.3, GenScript), was cloned into the pXOOM vector as previously described (Jespersen et al., [2002]). DNA was purified using Plasmid DNA Purification NucleoBond Xtra Midi-kit (Macherey-Nagel). […] Extracted plasmids were linearized down-stream the poly(A) segment using the XhoI restriction enzyme (New England Biolabs, Ipswich, MA, USA). RNA was in vitro transcribed by synthetization from the T7 RNA polymerase promoter using the mMessenger mMachine kit (Ambion) according to manufacturer’s protocol. Messenger RNA was purified using the MEGAclear kit (Ambion). Transcribed RNA integrity was assessed by agarose gel electrophoresis.
(§3) Stage V and VI defolliculated Xenopus laevis oocytes were purchased from EcoCyte Bioscience (Dortmund, Germany) and kept in Kulori medium (90 mM NaCl, 4 mM KCl, 1 mM MgCl2, 1 mM CaCl2, and 5 mM Hepes, pH 7.4). Oocytes were micro-injected with 50 nl mRNA solution containing 30 ng RNA per oocyte and incubated at 19°C. Currents were measured after 2–5 days using a conventional two-electrode-voltage clamp (TEVC). The oocytes were placed in a 200 μl chamber and continuously exposed to a flow of Kulori medium with or without ligands (1 ml/min) while impaled with both a current and a voltage electrode filled with 3 M KCl and connected to an Oocyte Clamp Amplifier [Warner Instruments Corp. (OC-725 B) and a PC-interface (Digidata1440A, Molecular Devices)]. Current amplitude in absence or presence of ligands were analyzed using pClamp 10.2 software (Molecular Devices). All experiments were performed with oocyte membrane voltages constantly clamped to −70 mV and the temperature was kept between 19 and 22°C. In activation experiments, non-responding as well as low-responding (<10 nA) oocytes were excluded from the dataset. Ligands PACAP-38, PACAP-27, PACAP(6–38) were custom synthetized by Caslo (Lyngby, Denmark) while maxadilan was purchased from Bachem (Bubendorf, Switzerland).
(§4) Concentration-response curves for both oocytes and dural mast cells were analyzed for overall effects of PACAP-38 and -27 by two-way analyses of variance (ANOVA) followed by Sidak’s test for multiple pairwise comparisons. Effects of PAC1-receptor ligands on mast cell degranulation or on receptor-expressing oocytes were analyzed with a one-way ANOVA followed by Tukey’s multiple comparisons test. The effect of PACAP-38 and PACAP(6–38) on MrgB3-expressing oocytes were analyzed by an unpaired two-tailed t-test. Differences between groups were considered significant when p < 0.05 and data are presented as mean with standard error of the mean (±SEM). GraphPad Prism 7 (GraphPad Prism Software, San Diego, CA, USA) was used for statistical analysis.

[3] = system: PAC1-receptor (Rattus Norvegicus Adcyap1r1 variant 5, null-splice variant); type: cell-based
Description: as §2, §3, §4

[4] = system: PAC1-receptor (Rattus Norvegicus Adcyap1r1 variant 5, null-splice variant); experiment: Antagonism of PACAP-38-induced currents in PAC1-receptor-expressing oocytes (TEVC); type: cell-based
Description: as §2, with “RNA was in vitro transcribed by synthetization from the T7 RNA polymerase promoter using the mMessenger mMachine kit (Ambion) according to manufacturer’s protocol. Messenger RNA was purified using the MEGAclear kit (Ambion).” left out
Stage V and VI defolliculated Xenopus laevis oocytes were purchased from EcoCyte Bioscience (Dortmund, Germany) and kept in Kulori medium (90 mM NaCl, 4 mM KCl, 1 mM MgCl2, 1 mM CaCl2, and 5 mM Hepes, pH 7.4). […] Currents were measured after 2–5 days using a conventional two-electrode-voltage clamp (TEVC). […] Current amplitude in absence or presence of ligands were analyzed using pClamp 10.2 software (Molecular Devices). […]
Concentration-response curves for both oocytes and dural mast cells were analyzed for overall effects of PACAP-38 and -27 by two-way analyses of variance (ANOVA) followed by Sidak’s test for multiple pairwise comparisons. […]

rat meningeal mast cells = experiment: Mast cell degranulation in hemi-skull preparations (dura mater, toluidine blue staining, microscopic count); type: cell-based, rat (male Sprague-Dawley)
Procedure: Mast cell degranulation was performed as previously described (Pedersen et al., [2015]). In brief, skulls were cut mid-sagittal and the brain halves were removed, leaving the dura mater undisturbed. This was followed by immediate addition of either 350 μl 0.1, 1 or 10 μM PACAP-38 (custom synthesis by Caslo Laboratory ApS, Lyngby, Denmark) or vehicle (saline) in phosphate buffered saline (PBS). After 30 s incubation, the reactions were terminated, and the skulls were fixated in 4% paraformaldehyde in phosphate buffered saline (PBS; Glostrup Hospital Pharmacy, Denmark). The dura mater was dissected from the skull, whole mounted on slides, and mast cells were visualized by staining with 0.1% acidified toluidine blue (Sigma Aldrich, Germany). Tissues were dehydrated in graded alcohols prior to cover slip mounting. The level of mast cell degranulation was evaluated by 400× magnification (Nikon Eclipse Ni microscope) by a researcher blinded to the treatment and was counted in 10 consecutive fields along the stem part of the middle meningeal artery. Mast cells were considered degranulated if an extensive dispersion of more than 10 extruded granules were localized outside the cell or if an extensive loss of staining gave the cell a “ghostly” look.
as §4

VPAC2-receptor = system: VPAC2-receptor; set-up: method as in Harmar et al., 2012; conditions: PACAP-38, PACAP-27 and VIP compared; ref Harmar et al., 2012; cited from earlier work
migraine patients = conditions: migraineurs; ref Rahmann et al., 2008; cited from earlier work
Description: as §1, with “[1993]). […] Degranulation of mast cells can be induced either by an allergen-IgE-dependent mechanism or via an IgE-independent mechanism. The latter mechanism can be activated by a group of molecules known as basic secretagogues.” for “[1993]).”

[5] = system: calcitonin gene-related peptide (CGRP) release from the trigeminal nucleus caudalis; conditions: ref Jansen-Olesen et al., 2014; cited from earlier work
Description: Future studies will have to rule out if MrgB3-receptors are involved in PACAP- ...

VPAC1-receptor = system: VPAC1-receptor; set-up: method as in Harmar et al., 2012; conditions: PACAP-38, PACAP-27 and VIP compared; ref Harmar et al., 2012; cited from earlier work
PAC1-receptor = conditions: relative to PACAP; ref Miyata et al., 1989, 1990; Harmar et al., 1998; cited from earlier work
Description: Pituitary adenylate cyclase-activating peptide-38 (PACAP-38) is a 38-amino acid neuropeptide located in both sensory and parasympathetic perivascular nerve fibers (Moller et al., [1993]; Mulder et al., [1994]). A C-terminal truncated 27-amino acid (PACAP-27) version is endogenously present as well but is less abundant (Miyata et al., [1990]; Arimura et al., [1991]; Ogi et al., [1993]). […] At present, three PACAP-receptors have been identified: PA ... || Several different splice variants of the PAC1-receptor have been identified in rats. Splice sites in the extracellular N-terminal domain and the third intracellular loop account for fine tuning of ligand affinity and signal transduction through adenylate cyclase or PLC activation (Deutsch and Sun, [1992]; Spengler et al., [1993]).

[6] = ref Spengler et al., 1993, Pantaloni et al., 1996

Substance | affinity to MrgB3-receptor (result in words) (MrgB3-receptor) | peritoneal mast cell degranulation (result in words) [1] | affinity to VPAC2-receptor (result in words) (VPAC2; ref Harmar et al., 2012) | affinity to VPAC1-receptor (result in words) (VPAC1; ref Harmar et al., 2012) | activation of MrgB3-receptor (result in words) [2] | current ([3]; 0.1 μM alone, 1 min perfusion, −70 mV, Figure 6B, n = 9, mean ± SEM) [nA] | activation of PAC1-receptor / relative potency (result in words) ([3]; 0.01 to 1 μM, holding potential −70 mV) | inhibition of PACAP-38 induced responses (result in words) ([4]; PACAP(6–38) 0.1 μM together with PACAP-38, one-way ANOVA, Tukey's test) | PACAP-38-induced current in presence of antagonist ([4]; PACAP(6–38) administered together with PACAP-38 in 0.1 μM, −70 mV, n = 10, mean ± SEM, PACAP-38 alone −0.18 ± 0.5 μA) [μA] | mast cell degranulation (rat meningeal mast cells; 10 μM, Figure 6A, PACAP(6–38) n = 7 (p < 0.0001), PACAP-38 n = 5, mean ± SEM) [%] | mast cell degranulation (result in words) (rat meningeal mast cells; 0.1 to 10 μM, 30 s, rat meningeal mast cells) | profile on VPAC2-receptor (result in words) (VPAC2-receptor) | affinity to VPAC2 relative to PACAP (result in words) (VPAC2; [6]) | affinity to VPAC1 relative to PACAP (result in words) (VPAC1; [6]) | migraine attacks / headache after infusion (result in words) (migraine patients) | release of CGRP from the trigeminal nucleus caudalis (result in words) [5] | profile on VPAC1-receptor (result in words) (VPAC1-receptor) | binding to the PAC1-receptor, times lower than PACAP (PAC1-receptor)
[D-Trp^7,9,10]-substance P | affinity | – | – | – | – | – | – | – | – | – | – | – | – | – | – | – | – | –
Pituitary Adenylate Cyclase Activating Peptide(6–38) (FTDSYSRYRKQMAVKKYLAAVLGKRYKQRVKNK; ends and bridges not checked; UniProt P18509 137-169, looked up, fragment) [PACAP(6–38), PAC1-receptor antagonist, custom synthetized by Caslo] | – | pronounced mast cell degranulation; also recorded: as potent as PACAP-38 | has not been shown to have an affinity | has not been shown to have an affinity | agonistic effect on MrgB3-receptors expressed in oocytes; also recorded: equipotent to PACAP-38; also recorded: induce a significant current in MrgB3-receptor-expressing oocytes | −5 ± 6 | unable to induce currents | significantly antagonized; also recorded: significant inhibition of PACAP-38 induced responses | −0.05 ± 0.02 | 93 ± 2 | as potent as PACAP-38; also recorded: potent degranulator of rat meningeal mast cells | – | – | – | – | – | – | –
vasoactive intestinal peptide [VIP] | – | not PACAP-27 and VIP, caused degranulation; also recorded: weak degranulating effect | – | – | – | – | – | – | – | – | – | equipotent | equals that of PACAP | equals that of PACAP | only induces a mild headache and no migraine-like attacks in migraineurs; also recorded: does not provoke migraine headache | neither VIP, PACAP-27 nor maxadilan, mediated the release | equipotent | 1,000 times
